Assay results published in US6387906B1, “2,4,4-trisubstituted-1,3-dioxolane antifungals” (priority 1997, dated 2002).

Legend:
Trichophyton rubrum = experiment: Measurement of antifungal activity in vitro (lowest active dose) vs. Trichophyton rubrum; format: cell-based; conditions: lowest concentration inhibiting growth below 35% of control growth; CYG broth, 30° C. for 5-7 days, turbidimetry
Experimental: (§1) Test compounds were dissolved at a concentration of 10^−2 M in dimethyl sulfoxide (DMSO) and diluted into CYG broth (Odds, F. C. Antimicrobial Agents and Chemotherapy 1992; 36: 1727-1737) to give a final concentration of 25 μM and, in most tests, 5 μM. For some compounds the tests were done at 100, 10, 1.0 and 0.1 μM. Cultures were inoculated with Candida.kefyr to an initial concentration of 10^4/ml and with Trichophyton rubrum to an equivalent concentration determined by turbidimetry. Cultures were incubated in the wells of microdilution plates at 37° C. for 48 h (C. kefyr) and at 30° C. for 5-7 days (T. rubrum). Growth in wells containing test compounds was estimated turbidimetrically as a percentage of growth in compound-free controls and the lowest concentration of compound that inhibited the growth of an isolate below 35% of control growth was recorded as the lowest active dose (LAD).

Candida kefyr = experiment: Measurement of antifungal activity in vitro (lowest active dose) vs. Candida kefyr; format: cell-based; conditions: lowest concentration inhibiting growth below 35% of control growth; CYG broth, 37° C. for 48 h, turbidimetry
Experimental: as §1

## CC(C)N1CCN(c2ccc(N3CCN(c4ccc(OC[C@H]5OC[C@](Cn6cncn6)(c6ccc(F)cc6F)O5)cc4)CC3)cc2)C1=O [Compound 51, (2S-cis)-1-[4-[4-[4-[[4-(2,4-difluorophenyl)-4-(1H-1,2,4-triazol-1-ylmethyl)-1,3-dioxolan-2-yl]methoxy]phenyl]-1-piperazinyl]phenyl]-3-(1-methylethyl)-2-imidazolidinone]
other
  melting point: 177.8 °C
Trichophyton rubrum
  LAD (μM) vs. T. rubrum: ≦0.1 μM
Candida kefyr
  LAD (μM) vs. C. keyr: ≦0.1 μM
